Measured values published in patent US12702660B2, “Method for treating cancer with an oral dosage form of an estrogen receptor-alpha inhibitor” (Eisai R&D Management Co., Ltd., priority 2019, dated 2026).
Read-outs that look alike come from different tables or passages of the source.

Assay: Plasma PK of H3B-6545 capsules in fasted patients, phase 1 dose escalation
Format: in vivo, human
Details: for Tlag: Median (Min, Max)
Description: Blood samples were collected at the planned time points from each patient and centrifuged. The plasma portion of each sample was then transferred to a K2EDTA tube, which was then shipped to a bioanalytical lab for concentration measurement using LC-MS/MS. The concentration data were then analyzed using Phoenix® WinNonlin software to obtain PK parameters. The obtained PK parameters were further summarized using analytical software.
Blood samples (approximately 5 mL each) were collected from human patients pre-dose and at various hourly time points post-dose. Plasma concentrations of H3B-6545 were determined using a validated high-performance liquid chromatography/tandem mass spectrometry (LC-MS/MS) method. The lower limit of quantification was 0.100 ng/mL.
The PK Analysis Set included subjects who received H3B-6545 drug product in capsules or tablets and had sufficient evaluable plasma concentration data to derive at least 1 primary PK parameter in each treatment. Plasma concentrations of H3B-6545 (as free base) were tabulated and summarized at each nominal time using descriptive statistics (number of subjects, arithmetic mean with standard deviation [SD], coefficient of variation [CV %], geometric mean, median, minimum, and maximum) as appropriate. Individual and mean (±SD) plasma concentration-time profiles were provided for each treatment.
Pharmacokinetic parameters of H3B-6545 were calculated using noncompartmental methods, using an appropriate model for plasma data and extravascular administration. The PK parameters included, but were not limited to, area under the curve to the time of the last quantifiable concentration (AUC0-t), maximum concentration (Cmax), and time at which the maximum concentration occurred (tmax). If data permitted, the area under the plasma concentration-time curve extrapolated to infinity (AUC0-inf), terminal elimination half-life (t1/2), apparent total body clearance (CL/F), total systemic clearance after oral administration at steady state (CLss/F), apparent volume of distribution during the terminal phase (Vz/F), apparent steady-state volume of distribution (Vss), accumulation ratio for Cmax (RCmax) and accumulation ratio of AUC0-24 (RAUC) were also derived.
Methods were used to analyze whether H3B-6545 inactivates both wild-type and mutant ERα by targeting cysteine 530 and enforcing a unique antagonist conformation. Methods: Women with locally advanced or metastatic HR+BC are treated (tx) with H3B-6545 drug product administered once daily orally by capsule over a 28 day cycle after progression on at least one hormonal therapy and at least one additional therapy/regimen. Dose escalation uses a 3+3 design with the option to backfill previously cleared doses and allows for intrapatient dose escalation. This example explored the safety, pharmacokinetics and pharmacodynamics of H3B-6545 in women with HR+BC to identify a recommended subsequent dose for testing.
• H3B-6545 administered once daily orally over a 28 day cycle. • Dose escalation using a standard 3+3 study design using dose cohorts of 100, 200, 300, 450, and 600 mg QD. • Patients allowed to backfill previously cleared doses. • Intra-patient dose escalation allowed after completion of Cycle 3. Results (as of Apr. 20, 2019) Patient Population: • 46 patients were treated with H3B-6545 at doses of 100 to 600 mg QD. • 42 (91.3%) patients received a prior CDK4/6 inhibitor and 32 (69.6%) prior fulvestrant. • 30 (65.2%) patients received ≥3 prior anti-cancer therapy lines in the advanced/metastatic setting.
The clinical trial of Example 3 was continued and PK evaluations (of this Example 4) were made at a later date on the basis of a larger patient population. The summary of Tables 1 in Analysis of Pharmacokinetic (PK) of Capsules in Fasted Patients and 2 show PK parameters and profiles of human patients receiving capsules of H3B-6545 drug product prepared as in Example 1. […]

[1] = Cycle 1 Day 15, 100 mg QD capsules, fasted patients, Geometric Mean (GeoCV %)
[2] = Cycle 1 Day 15, 100 mg QD capsules, fasted patients, normalized from Table 11
[3] = Cycle 1 Day 15, 200 mg QD capsules, fasted patients, Geometric Mean (GeoCV %)
[4] = Cycle 1 Day 15, 200 mg QD capsules, fasted patients, normalized from Table 11
[5] = Cycle 1 Day 15, 300 mg QD capsules, fasted patients, Geometric Mean (GeoCV %)
[6] = Cycle 1 Day 15, 300 mg QD capsules, fasted patients, normalized from Table 11
[7] = Cycle 1 Day 15, 450 mg QD capsules, fasted patients, Geometric Mean (GeoCV %)
[8] = Cycle 1 Day 15, 450 mg QD capsules, fasted patients, normalized from Table 11
[9] = Cycle 1 Day 15, 600 mg QD capsules, fasted patients, Geometric Mean (GeoCV %)
[10] = Cycle 1 Day 15, 600 mg QD capsules, fasted patients, normalized from Table 11
[11] = Cycle 1 Day-Dose Escalation, 100 mg QD capsules, fasted patients, normalized from Table 9
[12] = Cycle 1 Day-Dose Escalation, 200 mg QD capsules, fasted patients, normalized from Table 9
[13] = Cycle 1 Day-Dose Escalation, 300 mg QD capsules, fasted patients, normalized from Table 9
[14] = Cycle 1 Day-Dose Escalation, 450 mg QD capsules, fasted patients, normalized from Table 9
[15] = Cycle 1 Day-Dose Escalation, 600 mg QD capsules, fasted patients, normalized from Table 9
[16] = female, human, plasma, oral, 100 mg, Cycle 1 Day 1, 100 mg QD capsules, fasted patients, Geometric Mean (GeoCV %)

## CN(C)C(=O)/C=C/CNCCOc1ccc(/C(=C(/CC(F)(F)F)c2ccccc2)c2ccc3[nH]nc(F)c3c2)cn1 [H3B-6545, (E)-N,N-dimethyl-4-[2-[5-[(Z)-4,4,4-trifluoro-1-(3-fluoro-1H-indazol-5-yl)-2-phenylbut-1-enyl]pyridin-2-yl]oxyethylamino]but-2-enamide]
100 mg to 600 mg, Cycle 1, Day 1, preliminary PK analyses (FIG. 1)
  plasma exposure versus dose: roughly dose-proportional increase
100 mg to 600 mg, preliminary PK analyses (FIG. 1)
  tmax and half-life, dependence on dose and time: independent of dose and time
100 to 600 mg, as of Apr. 20, 2019 (FIG. 1)
  plasma concentration versus dose: increased with dose
Cycle 1 Day 1, 100 mg QD capsules, fasted patients, Geometric Mean (GeoCV %)
  CL/F: 46.9 (92.2); 6 L/h
Cycle 1 Day 1, 100 mg QD capsules, fasted patients
  Tlag: 0 (0-1); 6 h
Cycle 1 Day 1, 200 mg QD capsules, fasted patients, Geometric Mean (GeoCV %)
  CL/F: 37.9 (68.3); 8 L/h
Cycle 1 Day 1, 200 mg QD capsules, fasted patients
  Tlag: 0 (0-0.6); 12 h
Cycle 1 Day 1, 300 mg QD capsules, fasted patients, Geometric Mean (GeoCV %)
  CL/F: 27.1 (49.1); 10 L/h
Cycle 1 Day 1, 300 mg QD capsules, fasted patients
  Tlag: 0 (0-0.58); 11 h
Cycle 1 Day 1, 450 mg QD capsules, fasted patients, Geometric Mean (GeoCV %)
  CL/F: 19.6 (42.4); 8 L/h
Cycle 1 Day 1, 450 mg QD capsules, fasted patients
  Tlag: 0 (0-0.5); 11 h
Cycle 1 Day 1, 600 mg QD capsules, fasted patients, Geometric Mean (GeoCV %)
  CL/F: 18.3 (68.6); 5 L/h
Cycle 1 Day 1, 600 mg QD capsules, fasted patients
  Tlag: 0 (0-0.5); 7 h
[1]
  CLss/F: 39.1 (56.2); 6 L/h
  RAUC (accumulation ratio of AUC0-24): 1.52 (58.3); 6
  RCmax (accumulation ratio for Cmax): 1.61 (69.3); 6
Cycle 1 Day 15, 100 mg QD capsules, fasted patients
  Tlag: 0 (0-0); 6 h
[2]
  AUC0-24 (per 1 mg of API): 25.6 ng·h/mL/mg
  AUC0-inf (per 1 mg of API): 29.5 ng·h/mL/mg
  AUC0-t (per 1 mg of API): 25.9 ng·h/mL/mg
  Cmax (per 1 mg of API): 2.9 ng/mL/mg
[3]
  CLss/F: 29.1 (52.8); 10 L/h
  RAUC (accumulation ratio of AUC0-24): 1.43 (72.9); 10
  RCmax (accumulation ratio for Cmax): 1.28 (118.2); 10
Cycle 1 Day 15, 200 mg QD capsules, fasted patients
  Tlag: 0 (0-0); 10 h
[4]
  AUC0-24 (per 1 mg of API): 34.4 ng·h/mL/mg
  AUC0-inf (per 1 mg of API): 39.8 ng·h/mL/mg
  AUC0-t (per 1 mg of API): 34.6 ng·h/mL/mg
  Cmax (per 1 mg of API): 3.0 ng/mL/mg
[5]
  CLss/F: 26.2 (50.5); 10 L/h
  RAUC (accumulation ratio of AUC0-24): 1.27 (38.3); 11
  RCmax (accumulation ratio for Cmax): 1.34 (38.3); 11
Cycle 1 Day 15, 300 mg QD capsules, fasted patients
  Tlag: 0 (0-0); 11 h
[6]
  AUC0-24 (per 1 mg of API): 40.0 ng·h/mL/mg
  AUC0-inf (per 1 mg of API): 42.5 ng·h/mL/mg
  AUC0-t (per 1 mg of API): 40.3 ng·h/mL/mg
  Cmax (per 1 mg of API): 4.0 ng/mL/mg
[7]
  CLss/F: 32.1 (52.6); 10 L/h
  RAUC (accumulation ratio of AUC0-24): 0.920 (49); 10
  RCmax (accumulation ratio for Cmax): 1.05 (42.1); 10
Cycle 1 Day 15, 450 mg QD capsules, fasted patients
  Tlag: 0 (0-0); 10 h
[8]
  AUC0-24 (per 1 mg of API): 31.2 ng·h/mL/mg
  AUC0-inf (per 1 mg of API): 38.6 ng·h/mL/mg
  AUC0-t (per 1 mg of API): 31.2 ng·h/mL/mg
  Cmax (per 1 mg of API): 3.1 ng/mL/mg
[9]
  CLss/F: 32.7 (78.1); 3 L/h
  RAUC (accumulation ratio of AUC0-24): 0.712 (31.4); 3
  RCmax (accumulation ratio for Cmax): 0.685 (69.2); 3
Cycle 1 Day 15, 600 mg QD capsules, fasted patients
  Tlag: 0 (0-0); 3 h
[10]
  AUC0-24 (per 1 mg of API): 30.6 ng·h/mL/mg
  AUC0-inf (per 1 mg of API): 66.2 ng·h/mL/mg
  AUC0-t (per 1 mg of API): 31.2 ng·h/mL/mg
  Cmax (per 1 mg of API): 2.8 ng/mL/mg
[11]
  AUC0-24 (per 1 mg of API): 16.8 ng·h/mL/mg
  AUC0-inf (per 1 mg of API): 21.3 ng·h/mL/mg
  AUC0-t (per 1 mg of API): 16.8 ng·h/mL/mg
  Cmax (per 1 mg of API): 1.78 ng/mL/mg
[12]
  AUC0-24 (per 1 mg of API): 23.8 ng·h/mL/mg
  AUC0-inf (per 1 mg of API): 26.37 ng·h/mL/mg
  AUC0-t (per 1 mg of API): 24.1 ng·h/mL/mg
  Cmax (per 1 mg of API): 2.4 ng/mL/mg
[13]
  AUC0-24 (per 1 mg of API): 31.6 ng·h/mL/mg
  AUC0-inf (per 1 mg of API): 36.9 ng·h/mL/mg
  AUC0-t (per 1 mg of API): 31.8 ng·h/mL/mg
  Cmax (per 1 mg of API): 3.0 ng/mL/mg
[14]
  AUC0-24 (per 1 mg of API): 35.9 ng·h/mL/mg
  AUC0-inf (per 1 mg of API): 51.1 ng·h/mL/mg
  AUC0-t (per 1 mg of API): 35.9 ng·h/mL/mg
  Cmax (per 1 mg of API): 3.3 ng/mL/mg
[15]
  AUC0-24 (per 1 mg of API): 37.3 ng·h/mL/mg
  AUC0-inf (per 1 mg of API): 54.8 ng·h/mL/mg
  AUC0-t (per 1 mg of API): 37.2 ng·h/mL/mg
  Cmax (per 1 mg of API): 3.4 ng/mL/mg
[16]
  AUC(0-inf): 2130 ng·h/mL
  Cmax: 178 ng/mL
  half-life: 10.2 h
female, human, plasma, oral, 100 mg, Cycle 1 Day 1, 100 mg QD capsules, fasted patients, Geometric Mean (GeoCV %), read-out: AUC0-24
  AUC(0-t): 1680 ng·h/mL
female, human, plasma, oral, 100 mg, Cycle 1 Day 1, 100 mg QD capsules, fasted patients, Geometric Mean (GeoCV %), read-out: AUC0-t
  AUC(0-t): 1680 ng·h/mL
